Source: PMC10542788, “Discovery of a cystathionine γ-lyase (CSE) selective inhibitor targeting active-site pyridoxal 5′-phosphate (PLP) via Schiff base formation” (Scientific Reports, 2023)

Experiments:
rat CSE (rCSE) = target: T1, rat CSE (rCSE) (Rattus norvegicus, UniProt P18757); experiment: rCSE inhibition, H2S detection by fluorescence of HSip-1; format: biochemical
T1 construct: His-tag (C); made in house; host or cells: E. coli BL21
Experimental: The developed assay system employs a plate reader to detect H2S production by CSE as a fluorescence signal in a solution containing 30 μg/mL rat CSE (rCSE), 1 μM HSip-1, 100 μM pyridoxal-5′-phosphate (PLP) and 1.5 mM cysteine (a substrate) in a 384-well plate format (Fig. 1b). A large amount of rCSE was expressed in E. coli and purified on a Ni Sepharose 6 Fast Flow module. We then performed screening of a chemical library consisting of 161,600 compounds (from the Drug Discovery Initiative, the University of Tokyo) for CSE inhibitors (Fig. 1c). […] Then, a confirmation test for repeatability (n = 4) of the 160 compounds selected in the 1st screening was performed to exclude false-positives. In this step, we also excluded cysteine-reactive compounds by changing the addition order of the rCSE and cysteine (substrate) solutions. In other words, in the 1st screening, the enzyme solution was firstly added to each library compound, while in the confirmation test for repeatability of the hit compounds in the 1st screening, we firstly added the cysteine solution to each compound. This enabled us to identify and exclude cysteine-reactive compounds, based on their reaction with the added cysteine. These procedures left 80 compounds showing both more than 40% inhibition at 10 µM and similar % inhibition of rCSE irrespective of the addition order of the rCSE and cysteine solutions. In the 2nd screening, we examined the reactivity of these 80 compounds with H2S using an H2S donor[17] to exclude H2S-reactive compounds. […] In this assay, we selected 13 compounds which were non-reactive to H2S, but one was relatively unstable and two of them were the same compound, so that 11 compounds were finally selected. These compounds included some hydrazine and hydrazide derivatives, so we performed titration assay of the selected 11 compounds together with 9 commercially available hydrazine and hydrazide compounds (Supplementary Fig. S3) and calculated the half-maximal (50%) inhibitory concentration (IC50) of each compound.
The fluorescence intensity of HSip-1 was measured (λex = 490 nm, λem = 510 nm) with a microplate reader (EnVision, Perkin Elmer).
10 µL of 1.5 mM cysteine solution in 30 mM HEPES (pH 7.4) was added to 10 µL of solution containing 30 µg/mL rCSE, 100 µM PLP, 1 µM HSip-1, 0.005% tween 20 and the test compound (0.5% DMSO as a cosolvent). The mixture was incubated at 25 °C for 3 h and the fluorescence intensity of HSip-1 was measured with a microplate reader.

human CSE (hCSE) = target: T2, human CSE (hCSE) (Homo sapiens, UniProt P32929); experiment: hCSE inhibition in lysate of HEK293T cells expressing hCSE, HSip-1; format: biochemical; details: mean ± S.E., read-out: IC50, inhibitory activity towards hCSE in cell lysate
T2 construct: expressed in transfected cells; host or cells: HEK293T
Experimental: We first examined whether or not 1 inhibits human CSE (hCSE) in cell lysates. We prepared the lysate of HEK293T cells expressing hCSE, and added 1.5 mM cysteine, 100 μM PLP, 1 μM HSip-1 and various concentrations of 1 to it. Based on fluorescence measurements, the IC50 value of 1 for hCSE was calculated to be 26 ± 2 µM, which is similar to the value for rCSE measured in HEPES buffer (Fig. 4b). […] We also confirmed that all amino acid residues of rCSE involved in the recognition of 1 are conserved in hCSE (Supplementary Fig. S10).
10 µL of 1.5 mM cysteine solution in 30 mM HEPES (pH 7.4) was added to 10 µL of solution containing 300 µg/mL cell lysate of HEK293T cells expressing hCSE, 100 µM PLP, 1 µM HSip-1, 0.005% tween 20 and various concentrations of the inhibitor (0.5% DMSO as a cosolvent). The mixture was incubated at 37 °C for 3 h and the fluorescence intensity of HSip-1 was measured with a microplate reader.

rCSE [1] = target: T3, rCSE (Rattus norvegicus, UniProt P18757); experiment: rCSE inhibition, cysteine persulfide (sulfane sulfur) production from cystine detected with SSP4; format: biochemical; design: His-tag (C); made in house; host or cells: E. coli BL21; details: cystine as substrate, SSP4 probe, mean ± S.E.
Experimental: We further examined whether or not 1 can inhibit the production of cysteine persulfide from cystine by CSE (Supplementary Fig. S5)[10], using a commercially available sulfane sulfur-detecting probe, SSP4.
10 µL of 0.5 mM cystine solution in 30 mM HEPES (pH 7.4) was added to 10 µL of solution containing 50 µg/mL rCSE, 100 µM PLP, 1 µM SSP4 (Dojindo), 0.005% tween 20 and various concentrations of the inhibitor (0.5% DMSO as a cosolvent). The mixture was incubated at 37 °C for 60 min and the fluorescence intensity of SSP4 was measured with a microplate reader.

rCSE [2] = target: T3, rCSE; experiment: Live-cell fluorescence imaging of sulfane sulfur with SSP4 in rCSE-expressing COS-7 cells; format: cell-based; details: COS-7 cells expressing rCSE, 1000 µM
Experimental: Finally, we evaluated the inhibitory activity of 1 towards rCSE in cells. […] So, we prepared COS-7 cells expressing rCSE, treated them with 1 at various concentrations (0, 100, 300 and 1000 µM), and performed fluorescence imaging of sulfane sulfur with SSP4. […] Thus, this inhibitor is available for live-cell experiments.
COS-7 cells were maintained in Dulbecco’s modified Eagle’s medium (DMEM) containing 10% fetal calf serum (FBS) and 1% penicillin streptomycin in a humidified atmosphere at 37 °C. The cells were seeded in 6 cm dishes at a density of 5 × 10^5 cells per dish. Transient transfection was performed with Lipofectamine 3000 (Thermo Fisher Scientific). Briefly, 2.5 µg plasmid, 5 µL P3000 reagent, and 7.5 µL Lipofectamine 3000 reagent were mixed in Opti-MEM, and the mixture was added to the cells. After incubation for 24 h, transfected COS-7 cells were re-seeded in eight-well chamber slides (µ-Slide 8 well high, ibidi GmbH) at a density of 4 × 10^4 cells per well. […] Excess probe was removed and the cells were washed with HBSS, then fluorescence images were captured using a Nikon A1R + confocal laser scanning microscope with an ECLIPSE Ti-E inverted microscope and a 20 × objective lens. […] Fluorescence intensity of images was calculated by using NIS-Elements software (Nikon).

T3 sequence (P18757 whole entry): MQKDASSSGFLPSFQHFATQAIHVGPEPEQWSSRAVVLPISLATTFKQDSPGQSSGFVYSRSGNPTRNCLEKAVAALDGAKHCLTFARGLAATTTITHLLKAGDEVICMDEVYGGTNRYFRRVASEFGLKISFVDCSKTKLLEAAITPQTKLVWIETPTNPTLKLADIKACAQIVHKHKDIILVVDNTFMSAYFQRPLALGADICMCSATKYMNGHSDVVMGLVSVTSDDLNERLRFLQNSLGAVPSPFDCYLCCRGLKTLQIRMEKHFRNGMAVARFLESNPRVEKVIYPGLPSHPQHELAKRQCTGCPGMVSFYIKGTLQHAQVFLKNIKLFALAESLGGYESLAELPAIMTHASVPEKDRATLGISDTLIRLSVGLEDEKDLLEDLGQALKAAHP
T1 sequence (P18757 whole entry): as above
T2 sequence (P32929 whole entry): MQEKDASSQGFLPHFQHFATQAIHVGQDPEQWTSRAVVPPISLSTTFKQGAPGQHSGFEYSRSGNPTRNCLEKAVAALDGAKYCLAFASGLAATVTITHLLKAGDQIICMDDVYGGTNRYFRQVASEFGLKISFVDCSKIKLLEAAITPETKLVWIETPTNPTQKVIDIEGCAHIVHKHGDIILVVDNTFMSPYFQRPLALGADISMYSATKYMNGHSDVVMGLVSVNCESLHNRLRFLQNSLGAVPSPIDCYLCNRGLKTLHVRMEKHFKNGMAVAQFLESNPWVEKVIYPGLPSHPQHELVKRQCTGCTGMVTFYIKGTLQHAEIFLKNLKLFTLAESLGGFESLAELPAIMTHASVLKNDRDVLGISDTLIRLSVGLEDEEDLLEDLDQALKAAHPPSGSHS

IC50 (rat CSE (rCSE); fluorescence assay with HSip-1, 1.5 mM cysteine, 100 μM PLP, mean ± S.E., read-out: IC50, inhibitory activity towards rCSE): 13 ± 1 µM
IC50 (human CSE (hCSE)): 26 ± 2 µM
IC50 (rCSE [1]): 33 ± 3 µM
SSP4 fluorescence intensity (sulfane sulfur) in cells (rCSE [2]): almost completely suppressed
SMILES: NNC(=O)C(N)=O [Compound 1, oxamic hydrazide]
selectivity for CSE among the compounds examined (1, 2, PAG) (rat CSE (rCSE); versus CBS, 3MST, MGL and ALT): highest selectivity for CSE
